Measurements: US12611406B2, “Oxopiperazine derivatives for the treatment of cancer” (Inthera Bioscience AG, priority 2020, dated 2026)

Assays:
[1] = Single dose oral and intravenous PK in CD-1 mice (mesylate salt), blood; type: in vivo; parameters: AUC(0-t) / AUC(0-inf): unit not given here; details: male, CD-1, mouse, whole blood
Procedure: These studies analyzed the PK profile of Compound 1 following a single oral gavage or single intravenous dose to CD-1 mice.
Compound 1 (mesylate salt) was administered to four groups of male mice (n=4/group) as a single oral (po) gavage administration at dose levels of 5, 10, 20, and 50 mg/kg/adm or as single intravenous (IV) dose at 5 and 50 mg/kg/adm. The vehicle was 1% methylcellulose with 0.1% Tween-80 in study AMP800 and 5% dextrose in water in study AMP799. Blood samples were collected at pre-dose, 10 minutes, 40 minutes, 2, 4, and 7 hours after administration for analysis of Compound 1 concentrations in blood by liquid chromatography—tandem mass spectroscopy (LC-MS/MS) and subsequent calculation of PK parameters.

DU-145 = DU-145 CDX mouse model; type: in vivo; details: once weekly 60 mg/kg/day as 30 mg/kg BID, 4 weeks; p <0.001
Excerpt: Values larger than 100% indicate tumor regression.

PC cells = experiment: Anti-proliferative assay, five day treatment, CellTiter-Glo; type: cell-based; details: growth inhibition
Excerpt: The amount of cells remaining at the end of the treatment was estimated by CellTiter-Glo (Promega).
Many of the cell lines in this subset had deficiencies in the Rb1 and p53 tumor suppressor pathways.

[2] = 14-day daily oral repeated-dose exploratory study in CD-1 mice (mesylate salt); type: in vivo; details: for AUC(0-t) / Cmax: CD-1, mouse, in vivo, po
Procedure: This study explored the TK profile of Compound 1 after 14 days once daily oral dosing in male and female CD-1 mice.
Compound 1 (mesylate salt) was administered once daily for 14 consecutive days by oral gavage to groups of CD-1 mice (n=8/sex/group) at dose levels of 0 (control), 1, 5, 10 or 15 mg/kg/day. A suspension of 0.5% Methylcellulose (w/v) and 0.1% Polysorbate 80 (Tween 80) (v/v) was used as vehicle. For TK investigations sparse blood sampling was performed on treatment Days 1 and 14; three blood samples per animal and day were collected either pre-dose, 2 and 8 hours after administration (4 male and female animals per group) or 1, 4, and 24 hours (remaining 4 male and 4 female animals per group) after administration.

DU-145 cells = experiment: Annexin V staining; type: cell-based
AR = experiment: AR-driven gene expression in LNCaP cells stimulated with DHT; type: cell-based; details: PSA (KLK3), TMPRSS2, SLC45A3; DHT induction; 30, 300, 3000 nM
Procedure: Compound 1 concentrations from left to right: 30, 300, 3000 nM. Basal level indicates expression level in cells with no DHT treatment.
In SCLC, the expression of p300 and CBP is associated with poor prognosis (see Gao et al, Int J Clin Exp Pathol. 2014 Jan. 15; 7(2):760-7) with high p300 and CBP expressions being independent prognostic markers of poor overall survival (OS) for resected SCLC patients.

CC(C)C[C@@H]1NCCN([C@@H](CC(C)C)C(=O)N2CCC3(C[C@@H]2C)OCC(CN2CCCC2)CO3)C1=O (stereo partly drawn) [Compound 1, (S)-3-isobutyl-1-((S)-4-methyl-1-((S)-8-methyl-3-(pyrrolidin-1-ylmethyl)-1,5-dioxa-9-azaspiro[5.5]undecan-9-yl)-1-oxopentan-2-yl)piperazin-2-one]
AUC(0-inf) ([1]; intravenous 5 mg/kg): 1.11 | AUC(0-t) ([1]; intravenous 5 mg/kg): 1.03 | Tmax ([1]; intravenous 5 mg/kg): 0.17 h | half-life ([1]; intravenous 5 mg/kg): 2.3 h | AUC(0-inf) ([1]; intravenous 50 mg/kg): 13 | AUC(0-t) ([1]; intravenous 50 mg/kg): 12.2 | Tmax ([1]; intravenous 50 mg/kg): 0.17 h | half-life ([1]; intravenous 50 mg/kg): 1.6 h | AUC(0-inf) ([1]; oral 5 mg/kg): 0.246 | AUC(0-t) ([1]; oral 5 mg/kg): 0.179 | Tmax ([1]; oral 5 mg/kg): 0.17 h | half-life ([1]; oral 5 mg/kg): 4 h | AUC(0-inf) ([1]; oral 10 mg/kg): 0.471 | AUC(0-t) ([1]; oral 10 mg/kg): 0.31 | Tmax ([1]; oral 10 mg/kg): 0.17 h | half-life ([1]; oral 10 mg/kg): 5.6 h | AUC(0-inf) ([1]; oral 20 mg/kg): 2.49 | AUC(0-t) ([1]; oral 20 mg/kg): 1.97 | Tmax ([1]; oral 20 mg/kg): 0.17 h | half-life ([1]; oral 20 mg/kg): 3.2 h | AUC(0-inf) ([1]; oral 50 mg/kg): 3.38 | AUC(0-t) ([1]; oral 50 mg/kg): 2.88 | Tmax ([1]; oral 50 mg/kg): 0.67 h | half-life ([1]; oral 50 mg/kg): 2.6 h | Tumor growth inhibition (DU-145): 72 (<0.001)/**4 weeks % | IC50 values (PC cells): nanomolar range | tolerability ([2]; 1, 5, 10, and 15 mg/kg/day orally once daily for 14 consecutive days): well-tolerated | AUC(0-t) ([2]; female, 1 mg/kg, F, Day 1): 33.1 ng·h/mL | Cmax ([2]; female, 1 mg/kg, F, Day 1): 6.4 ng/mL | AUC(0-t) ([2]; female, 1 mg/kg, F, Day 14): 112 ng·h/mL | Cmax ([2]; female, 1 mg/kg, F, Day 14): 16.6 ng/mL | AUC(0-t) ([2]; female, 5 mg/kg, F, Day 1): 258 ng·h/mL | Cmax ([2]; female, 5 mg/kg, F, Day 1): 67.6 ng/mL | AUC(0-t) ([2]; female, 5 mg/kg, F, Day 14): 478 ng·h/mL | Cmax ([2]; female, 5 mg/kg, F, Day 14): 115 ng/mL | AUC(0-t) ([2]; female, 10 mg/kg, F, Day 1): 304 ng·h/mL | Cmax ([2]; female, 10 mg/kg, F, Day 1): 60.5 ng/mL | AUC(0-t) ([2]; female, 10 mg/kg, F, Day 14): 690 ng·h/mL | Cmax ([2]; female, 10 mg/kg, F, Day 14): 97.7 ng/mL | AUC(0-t) ([2]; female, 15 mg/kg, F, Day 1): 711 ng·h/mL | Cmax ([2]; female, 15 mg/kg, F, Day 1): 140 ng/mL | AUC(0-t) ([2]; female, 15 mg/kg, F, Day 14): 1090 ng·h/mL | Cmax ([2]; female, 15 mg/kg, F, Day 14): 151 ng/mL | AUC(0-t) ([2]; male, 1 mg/kg, M, Day 1): 55.4 ng·h/mL | Cmax ([2]; male, 1 mg/kg, M, Day 1): 10.9 ng/mL | AUC(0-t) ([2]; male, 1 mg/kg, M, Day 14): 108 ng·h/mL | Cmax ([2]; male, 1 mg/kg, M, Day 14): 16.3 ng/mL | AUC(0-t) ([2]; male, 5 mg/kg, M, Day 1): 225 ng·h/mL | Cmax ([2]; male, 5 mg/kg, M, Day 1): 42.9 ng/mL | AUC(0-t) ([2]; male, 5 mg/kg, M, Day 14): 607 ng·h/mL | Cmax ([2]; male, 5 mg/kg, M, Day 14): 90 ng/mL | AUC(0-t) ([2]; male, 10 mg/kg, M, Day 1): 361 ng·h/mL | Cmax ([2]; male, 10 mg/kg, M, Day 1): 64.8 ng/mL | AUC(0-t) ([2]; male, 10 mg/kg, M, Day 14): 782 ng·h/mL | Cmax ([2]; male, 10 mg/kg, M, Day 14): 105 ng/mL | AUC(0-t) ([2]; male, 15 mg/kg, M, Day 1): 689 ng·h/mL | Cmax ([2]; male, 15 mg/kg, M, Day 1): 133 ng/mL | AUC(0-t) ([2]; male, 15 mg/kg, M, Day 14): 717 ng·h/mL | Cmax ([2]; male, 15 mg/kg, M, Day 14): 102 ng/mL | Annexin V staining (DU-145 cells): induction of apoptosis | AR target gene expression (AR): effectively downregulates target genes
